Test [1] concerns Staphylococcus aureus 50774. In words: In vivo efficacy against systemic infections in mice. On the set-up: species or system Staphylococcus aureus; male mice (ddY-S). Conditions: Staphylococcus aureus, 50774, 336 h, oral, intravenous infection 5×10^8 cells, twice, immediately and 6 h after infection, 14 days, calculated for free base, read-out: median effective dose (ED50). How it is done: (§1) Compounds were each dissolved in deionized water. Each of the solutions was orally administered to mice infected with each of the test organisms under the conditions shown hereinbelow, and the median effective dose (ED50) was calculated by probit analysis. The numerals in the table show ED50 (mg/kg) value, calculated for free base.
(§2) Mice: Male mice (ddY-S) weighing about 20 g
Staphylococcus aureus 50774
Intravenous infection with 5×10^8 cells per mouse suspended in saline.
(§3) Four times, immediately, 6, 24 and 30 hours after infection in case of Streptococcus pneumoniae 1 Neufeld. Twice, immediately and 6 hours after infection in case of other organisms.
(§4) For 14 days in case of Staphylococcus aureus 50774 and Streptocuccus pneumoniae 1 Neufeld. For 7 days in case of other organisms.

Another test relates to M. bovis P-7101. Description: microbe, parasite or virus in culture. It is filed as cell-based. The conditions noted are these: Mycobacterium tuberculosis variant bovis, P7101, 20 h, read-out: minimum inhibitory concentration (MIC).
In the next test the test system is M. arginini G-230. In words: Anti-Mycoplasma activity, twofold agar-dilution method. Format: cell-based. The conditions noted are these: Mycoplasmopsis arginini, G230, 48 h, Chanock agar, 37° C., 2 days aerobically, calculated for free base, read-out: minimum inhibitory concentration (MIC). As for the experimental part: (§5) The numbers in the table show minimum inhibitory concentrations (MIC) (μg/ml), calculated for free base. The minimum inhibitory concentration was determined by the twofold agar-dilution method using Chanock agar. Three μl of a culture of test organisms in Chanock broth was inoculated onto 10-ml drug-containing agar layers in petri dishes. Growth of Mycoplasma was observed after incubation at 37° C. under the conditions shown hereinbelow. The MIC was defined as the lowest drug concentration which prevented growth of Mycoplasma microscopically.
(§6) Mycoplasma arginini and Acholeplasma laidlawii

The next test deals with A. laidlawii PG-8. The test is described as above. It is filed as cell-based. The conditions noted are these: Acholeplasma laidlawii, PG8, 48 h, Chanock agar, 37° C., 2 days aerobically, calculated for free base, read-out: minimum inhibitory concentration (MIC). How it is done: as §5, §6
Test [2] deals with Campylobacter jejuni A-24-2. In words: Antibacterial activity against Campylobacter jejuni, twofold agar-dilution method. Format: cell-based. Conditions: A242, strain A-24-2, blood-containing Mueller-Hinton agar, 48 h, 37° C. microaerobically, calculated for free base, read-out: minimum inhibitory concentration (MIC). How it is done: (§7) The numbers in the table show minimum inhibitory concentrations (MIC) (μg/ml), calculated for free base. The minimum inhibitory concentration was determined by the twofold agar-dilution method using blood-containing Mueller-Hinton agar. One loopful of a culture of test organisms in Mueller-Hinton broth was inoculated onto 10-ml drug-containing agar layer in petri dishes. Bacterial growth was observed after 48-hour incubation at 37° C. microaerobically. The MIC was defined as the lowest drug concentration which prevented visible bacterial growth.

In another test the test system is Campylobacter jejuni 77. The test is described as above. Format: cell-based. The conditions noted are these: strain 77, blood-containing Mueller-Hinton agar, 48 h, 37° C. microaerobically, calculated for free base, read-out: minimum inhibitory concentration (MIC). As for the experimental part: as §7
In test [3] the test system is Campylobacter jejuni 19806. The description is as above. Format: cell-based. The conditions noted are these: strain 19806, blood-containing Mueller-Hinton agar, 48 h, 37° C. microaerobically, calculated for free base, read-out: minimum inhibitory concentration (MIC). As for the experimental part:
as §7

In test [4] the test system is Campylobacter jejuni A-19-3. The test is described as above. It is filed as cell-based. Conditions: A193, strain A-19-3, blood-containing Mueller-Hinton agar, 48 h, 37° C. microaerobically, calculated for free base, read-out: minimum inhibitory concentration (MIC). How it is done: as §7
The test system of test [5] is Campylobacter jejuni 19804. Described as above. Format: cell-based. Conditions: strain 19804, blood-containing Mueller-Hinton agar, 48 h, 37° C. microaerobically, calculated for free base, read-out: minimum inhibitory concentration (MIC). How it is done: as §7
A further test deals with Campylobacter jejuni 170. The description is as above. Format: cell-based. Conditions: strain 170, blood-containing Mueller-Hinton agar, 48 h, 37° C. microaerobically, calculated for free base, read-out: minimum inhibitory concentration (MIC). How it is done:
as §7

In a further test the test system is Campylobacter jejuni 12. The description is as above. Format: cell-based. The conditions noted are these: strain 12, blood-containing Mueller-Hinton agar, 48 h, 37° C. microaerobically, calculated for free base, read-out: minimum inhibitory concentration (MIC). How it is done:
as §7

The test system of the next test is Campylobacter jejuni 20. The test is described as above. The conditions noted are these: strain 20, blood-containing Mueller-Hinton agar, 48 h, 37° C. microaerobically, calculated for free base, read-out: minimum inhibitory concentration (MIC). It is filed as cell-based. As for the experimental part:
as §7

Test [6] concerns Campylobacter jejuni 10812. Described as above. Format: cell-based. The conditions noted are these: strain 10812, blood-containing Mueller-Hinton agar, 48 h, 37° C. microaerobically, calculated for free base, read-out: minimum inhibitory concentration (MIC). How it is done:
as §7

In test [7] the test system is Campylobacter jejuni 19805. The test is described as above. Format: cell-based. Conditions: strain 19805, blood-containing Mueller-Hinton agar, 48 h, 37° C. microaerobically, calculated for free base, read-out: minimum inhibitory concentration (MIC). As for the experimental part: as §7
The next test concerns Campylobacter jejuni 10. The test is described as above. Format: cell-based. The conditions noted are these: strain 10, blood-containing Mueller-Hinton agar, 48 h, 37° C. microaerobically, calculated for free base, read-out: minimum inhibitory concentration (MIC). How it is done:
as §7

The test system of test [8] is Campylobacter jejuni A-11-3. The description is as above. The conditions noted are these: A113, strain A-11-3, blood-containing Mueller-Hinton agar, 48 h, 37° C. microaerobically, calculated for free base, read-out: minimum inhibitory concentration (MIC). Format: cell-based. How it is done: as §7
In test [9] the test system is Campylobacter jejuni 19807. Described as above. It is filed as cell-based. The conditions noted are these: strain 19807, blood-containing Mueller-Hinton agar, 48 h, 37° C. microaerobically, calculated for free base, read-out: minimum inhibitory concentration (MIC). As for the experimental part:
as §7

Test [10] concerns Streptococcus pneumoniae 1 Neufeld. Description: In vivo efficacy against systemic infections in mice. The arrangement: species or system Streptococcus pneumoniae; male mice (ddY-S). Conditions: 336 h, oral, intraperitoneal infection 3×10^3 cells, four times, immediately, 6, 24 and 30 h after infection, 14 days, calculated for free base, read-out: median effective dose (ED50). How it is done: as §1, §2
Streptococcus pneumoniae 1 Neufeld
Intraperitoneal infection with 3×10^3 cells per mouse suspended in brain heart infusion broth.
as §3, §4

Test [11] concerns Streptococcus pyogenes A65. Described as above. On the set-up: species or system Streptococcus pyogenes; male mice (ddY-S). The conditions noted are these: A65, 168 h, oral, intraperitoneal infection 3×10^7 cells, twice, immediately and 6 h after infection, 7 days, calculated for free base, read-out: median effective dose (ED50). How it is done: as §1, §2
Streptococcus pyogenes A65
Intraperitoneal infection with 3×10^7 cells per mouse suspended in brain heart infusion broth.
as §3, §4

In brackets after ≈: the same amount, converted by molar mass.

In patent US4795751A, “5-substituted-6,8-difluoroquinolines useful as antibacterial agents” (Dainippon Pharmaceutical Co., Ltd., priority 1985, dated 1989) one finds ED50 and MIC data, which are given here for one molecule.

Regarding `CC1CN(c2c(F)c(N)c3c(=O)c(C(=O)O)cn(C4CC4)c3c2F)CCN1` (stereo not shown) [Compound 1, 5-Amino-1-cyclopropyl-6,8-difluoro-7-(3-methyl-1-piperazinyl)-1,4-dihydro-4-oxoquinoline-3-carboxylic acid], the ED50 – broadly, the dose at which the effect has come halfway, by size or by number of responders – in [1] is 1.35 mg/kg; in test [10], 10.9 mg/kg; in test [11], 5.26 mg/kg. In addition, the MIC in the test with M. bovis P-7101 was 0.2 µg/mL (≈ 0.529 µM); with M. arginini G-230, 0.1 µg/mL (≈ 0.264 µM); with A. laidlawii PG-8, 0.1 µg/mL (≈ 0.264 µM); in test [2] it was 0.05 µg/mL (≈ 0.132 µM); in the test on Campylobacter jejuni 77, 0.0125 µg/mL (≈ 0.033 µM); in [3] it was 0.0125 µg/mL (≈ 0.033 µM). For the same molecule, the MIC was 0.05 µg/mL (≈ 0.132 µM) in test [4]; 0.0125 µg/mL (≈ 0.033 µM) in test [5]; 0.0125 µg/mL (≈ 0.033 µM) in the test on Campylobacter jejuni 170; 0.0125 µg/mL (≈ 0.033 µM) in the test with Campylobacter jejuni 12; 0.0063 µg/mL (≈ 0.0166 µM) in the test with Campylobacter jejuni 20; 0.025 µg/mL (≈ 0.0661 µM) in test [6]. Further, the MIC in test [7] was 0.0125 µg/mL (≈ 0.033 µM); with Campylobacter jejuni 10, 0.0125 µg/mL (≈ 0.033 µM); in [8], 0.05 µg/mL (≈ 0.132 µM); in test [9], 0.0125 µg/mL (≈ 0.033 µM).
